Data taken from ChEMBL document CHEMBL1201862, “PubChem BioAssay data set” (2004).
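Values below derive from 48-hour exposures of cells grown in 96-well plates, with endpoints linearly interpolated between the two concentrations bracketing the appropriate inhibition level. At the GI50, growth is halved.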 Active and inactive are the calls of the source. No stated cut-off is given here; in the data, active = GI50 up to about 1.1 µM and inactive = higher. Where a SMILES comes first, the peptide text is derived from it. The star is where a group is joined. Boc = CC(C)(C)OC(=O)*

Key:
Assay in all cases: NCI tumour cell line growth inhibition, 48 h
SF-539 = test system: SF-539
OVCAR-3 = test system: OVCAR-3
786-0 = test system: 786-0
NCI-H23 = test system: NCI-H23
SK-MEL-5 = test system: SK-MEL-5
COLO 205 = test system: COLO 205
NCI-H522 = test system: NCI-H522
ACHN = test system: ACHN
MCF7 = test system: MCF7
OVCAR-4 = test system: OVCAR-4
U-251 = test system: U-251
SW-620 = test system: SW-620
NCI/ADR-RES = test system: NCI/ADR-RES
NCI-H226 = test system: NCI-H226
PC-3 = test system: PC-3
SNB-75 = test system: SNB-75
CCRF-CEM = test system: CCRF-CEM
HOP-62 = test system: HOP-62
HOP-92 = test system: HOP-92
UACC-62 = test system: UACC-62

SMILES | GI50 (SF-539) | GI50 (OVCAR-3) | GI50 (786-0) | GI50 (NCI-H23) | GI50 (SK-MEL-5) | GI50 (COLO 205) | GI50 (NCI-H522) | GI50 (ACHN) | GI50 (MCF7) | GI50 (OVCAR-4) | GI50 (U-251) | GI50 (SW-620) | GI50 (NCI/ADR-RES) | GI50 (NCI-H226) | GI50 (PC-3) | GI50 (SNB-75) | GI50 (CCRF-CEM) | GI50 (HOP-62) | GI50 (HOP-92) | GI50 (UACC-62)
C[C@H]1[C@H](C)N1CC(O)Cn1ccnc1[N+](=O)[O-] (stereo partly specified) | > 100 µM (inactive) | > 100 µM (inactive) | > 100 µM (inactive) | > 100 µM (inactive) | > 100 µM (inactive) | > 100 µM (inactive) | > 100 µM (inactive) | > 100 µM (inactive) | > 100 µM (inactive) | > 100 µM (inactive) | > 100 µM (inactive) | > 100 µM (inactive) | > 100 µM (inactive) | > 100 µM (inactive) | > 100 µM (inactive) | > 100 µM (inactive) | > 91.6 µM (inactive) | > 100 µM (inactive) | 1 µM (active) | > 100 µM (inactive)
COc1ccc(OC)c(NC2=NCCO2)c1 | > 100 µM (inactive) | > 100 µM (inactive) | > 100 µM (inactive) | 52.4 µM (inactive) | > 100 µM (inactive) | > 100 µM (inactive) | > 100 µM (inactive) | > 100 µM (inactive) | > 100 µM (inactive) | > 100 µM (inactive) | > 100 µM (inactive) | 13.6 µM (inactive) | > 100 µM (inactive) | > 100 µM (inactive) | > 100 µM (inactive) | > 100 µM (inactive) | > 100 µM (inactive) | > 100 µM (inactive) | < 0.01 µM (active) | > 100 µM (inactive)
CC(C)OP(=O)(OC(C)C)/C(C#N)=C/c1c[nH]c2ccccc12 | > 100 µM (inactive) | 34 µM (inactive) | > 100 µM (inactive) | 46.2 µM (inactive) | 51.3 µM (inactive) | 88.9 µM (inactive) | > 100 µM (inactive) | 86.3 µM (inactive) | 28.7 µM (inactive) | 86.5 µM (inactive) | > 100 µM (inactive) | > 100 µM (inactive) | 21.7 µM (inactive) | 94 µM (inactive) | 67.6 µM (inactive) | 72.6 µM (inactive) | 35.6 µM (inactive) | > 100 µM (inactive) | 36.8 µM (inactive) | 76.6 µM (inactive)
CNC1=C(C)C(=O)C(O)=C([C@H](C)CCC=C(C)C)C1=O | – | 11.7 µM (inactive) | 24.9 µM (inactive) | 20 µM (inactive) | 14.4 µM (inactive) | 25.4 µM (inactive) | 3.77 µM (inactive) | 11.2 µM (inactive) | 37.2 µM (inactive) | 11.7 µM (inactive) | 27.7 µM (inactive) | 23.9 µM (inactive) | 5.21 µM (inactive) | 22.1 µM (inactive) | 22.6 µM (inactive) | 18 µM (inactive) | 3.95 µM (inactive) | 12.8 µM (inactive) | 33.1 µM (inactive) | 13 µM (inactive)
C=C(Cl)c1c(OC)cccc1OCc1ccccc1 | > 100 µM (inactive) | > 100 µM (inactive) | > 100 µM (inactive) | 26.1 µM (inactive) | 34.4 µM (inactive) | 98.2 µM (inactive) | 44.6 µM (inactive) | 90.8 µM (inactive) | 58.5 µM (inactive) | 98.9 µM (inactive) | > 100 µM (inactive) | 71 µM (inactive) | > 100 µM (inactive) | 48.2 µM (inactive) | > 100 µM (inactive) | 23.5 µM (inactive) | 75 µM (inactive) | > 100 µM (inactive) | 22.2 µM (inactive) | 30.4 µM (inactive)
O=C(O)Cc1ccc(Oc2nc3ccccc3nc2-c2cccs2)cc1 | 79.4 µM (inactive) | 48.4 µM (inactive) | 80 µM (inactive) | 55.8 µM (inactive) | 72.9 µM (inactive) | 31 µM (inactive) | 65.2 µM (inactive) | 56.6 µM (inactive) | 38.5 µM (inactive) | 51.1 µM (inactive) | 30.5 µM (inactive) | > 100 µM (inactive) | 60.5 µM (inactive) | 52.4 µM (inactive) | 46.3 µM (inactive) | 27.2 µM (inactive) | 49.3 µM (inactive) | > 100 µM (inactive) | 34.3 µM (inactive) | 58.1 µM (inactive)
Oc1ccc(Cl)cc1Cc1cc(Cl)cc(Cc2cc(Cl)ccc2O)c1O | 1.64 µM (inactive) | 2.24 µM (inactive) | 2.81 µM (inactive) | 2.01 µM (inactive) | 1.11 µM (active) | 1.76 µM (inactive) | 0.766 µM (active) | 2.29 µM (inactive) | 2.21 µM (inactive) | 2.83 µM (inactive) | 2.7 µM (inactive) | 3.29 µM (inactive) | 2.04 µM (inactive) | 2.74 µM (inactive) | 2.45 µM (inactive) | 1.93 µM (inactive) | 1.47 µM (inactive) | 2.5 µM (inactive) | 1.26 µM (inactive) | 2.15 µM (inactive)
CCCCCCCCCCCCCCCCOc1ccc(/C=C/C2=[N+](CCCl)CCO2)cc1 | > 100 µM (inactive) | > 100 µM (inactive) | 30.8 µM (inactive) | – | > 100 µM (inactive) | 67.6 µM (inactive) | > 100 µM (inactive) | > 100 µM (inactive) | > 100 µM (inactive) | > 100 µM (inactive) | 32.9 µM (inactive) | > 100 µM (inactive) | 56.1 µM (inactive) | > 100 µM (inactive) | > 100 µM (inactive) | > 100 µM (inactive) | > 100 µM (inactive) | 87.3 µM (inactive) | > 100 µM (inactive) | > 100 µM (inactive)
COC(=O)N1CC[C@@H]2CCC=C(c3cccc4c3OCO4)[C@@H]21 | > 100 µM (inactive) | > 100 µM (inactive) | > 100 µM (inactive) | > 100 µM (inactive) | 61.4 µM (inactive) | > 100 µM (inactive) | > 100 µM (inactive) | > 100 µM (inactive) | > 100 µM (inactive) | 45.4 µM (inactive) | > 100 µM (inactive) | > 100 µM (inactive) | 54.2 µM (inactive) | > 100 µM (inactive) | 54.2 µM (inactive) | 17.7 µM (inactive) | 49.3 µM (inactive) | > 100 µM (inactive) | 22 µM (inactive) | 81.7 µM (inactive)
CCOC(=O)C(CC(C)C)NC(=O)C(Cc1ccccc1)NC(=O)CNC(=O)OC(C)(C)C (stereo not drawn) (Boc-Gly-Phe-Leu-OEt; configuration not given here) | 13.5 µM (inactive) | 17.2 µM (inactive) | 20.9 µM (inactive) | – | 20.8 µM (inactive) | – | 19.1 µM (inactive) | 17.1 µM (inactive) | 2.44 µM (inactive) | 36.9 µM (inactive) | 17.7 µM (inactive) | 20.6 µM (inactive) | 80.2 µM (inactive) | 17.3 µM (inactive) | 20 µM (inactive) | 16.3 µM (inactive) | 16.6 µM (inactive) | 28.2 µM (inactive) | 25.2 µM (inactive) | 18.4 µM (inactive)
